In publication PMC8140105 (Scientific Reports, 2021):
Entries after “also recorded” stand apart in the source; their conditions may differ. No end group written: not given here.

Tests used:
BV-2 microglia cells = experiment: IL-6 and TNFα determination (ELISA); type: cell-based, murine; settings: BV-2 cells, 10 µM; for microglial activating properties of metabolites (IL-6 production): n = 12
Description: BV-2 cells were a kind gift from Prof. Alba Minelli and were grown in RPMI medium supplemented with 10% fetal bovine serum (FBS) and 1% penicillin-streptromycin solution (Life Technologies, Belgium). The cells were cultured in culture flasks (Greiner, Belgium) in an incubator set at 37 °C and 5% CO2. When confluent, cells were detached using a cell scraper and diluted 1:20 approximately every 4 days. Experiments were performed in serum-free DMEM without phenol red.
To investigate the microglia activating properties of the peptide, IL-6 and TNFα levels were determined in cell-free supernatants of BV-2 microglia cells after treatment. BV-2 cells (2 × 10^5 cells/well) were seeded in 24-well plates and treated with peptide for 20 h. ELISA was performed according to the supplier’s protocol (eBioscience, Vienna, Austria). Briefly, after incubation with biotinylated detection antibody, avidin-HRP conjugate and subsequently chromogenic tetramethylbenzidine (TMB) substrate were added. Absorbance was measured at 450 nm and 570 nm using the Multiskan Ascent 354 microplate reader (Thermofisher, Waltham, USA). Concentrations were determined using the standard curve generated using known concentrations of TNFα and IL-6.

[1] = Multiple time regression (MTR) analysis, blood-to-brain influx; type: in vivo, ICR-CD-1 mice; settings: 125I-labelled, mice, linear model, mean ± standard error
Description: Briefly, 0.1 µmol of the lyophilized peptide was dissolved in 100 µL of phosphate buffer (pH 7.4, 25 mM). A Iodo-Gen coated tube (Thermo Scientific, Merelbeke, Belgium) was first of all rinsed with 1 mL of phosphate buffer. Subsequently, 50 µL of sodium iodide solution (1.1 µmol/mL) and 1 mCi of Na^125I solution (Perking Elmer, Zaventem, Belgium) were transferred into this Iodo-Gen coated tube. The oxidation reaction was allowed to proceed for six minutes at room temperature, after which the iodonium solution was transferred to 50 µL of peptide solution (1 mM). The iodination reaction of the peptide was allowed to proceed for another six minutes at room temperature. Finally, the iodinated peptide was purified using a silver filter (Thermo Scientific, Merelbeke, Belgium).
In order to determine whether the peptide could enter the brain, in vivo multiple time regression (MTR) analysis was performed. ICR-CD-1 mice were anesthetized intraperitoneally using a 40% urethane solution (3 g/kg). […] At specified time points after injection (i.e. 1, 3, 5, 10, 12.5 and 15 min, with start and end in duplicate), blood was obtained from the carotid artery followed by decapitation of the mouse. The isolated brain was weighed and radioactivity measured in a gamma counter for 5 min (Wallac Wizard automatic gamma counter, Perkin Elmer, Shelton, CT, USA), as well as from 50 µL serum, which was obtained by centrifuging the collected blood at 10,000g for 15 min at 21 °C. The linear and biphasic modeling of the multiple time regression analysis was performed as previously described.

serum = settings: 37 °C, up to 60 min
brain homogenate = settings: ICR-CD-1 mice, 37 °C, up to 60 min
liver homogenate = settings: ICR-CD-1 mice, 37 °C, up to 60 min
faeces homogenate = settings: ICR-CD-1 mice, 37 °C, up to 60 min
kidney homogenate = settings: ICR-CD-1 mice, 37 °C, up to 60 min

For DEHSFLP [DEHSFLP], the “activating properties (IL-6 and TNFα production)” value (BV-2 microglia cells; scrambled control) was “no activating properties”.
With “DLPF [metabolite of PapRIV formed in serum]” the “microglial activating properties of metabolites (IL-6 production)” value (“microglial activating properties” below) (BV-2 microglia cells) was “no activating properties”.
For “DLPFEH [main metabolite of PapRIV formed in all matrices]”, the “microglial activating properties” value (BV-2 microglia cells) was “to the same extent as the native sequence”.
For Dermorphin [reference compound], the Kin ([1]; i.v. (jugular vein), 1–15 min) was 0.35 ± 0.05 µL/g/min and the “Vascular brain distribution volume, V0” value ([1]; i.v.) was 15.93 ± 0.64 µL/g.
In the case of “SDLPF [metabolite of PapRIV formed in serum]”, the “microglial activating properties” value (BV-2 microglia cells) is reported as “no activating properties”.
With SDLPFEH the cleaved bond (serum) was “S1-D2, major; also recorded: D2-L3; also recorded: F5-E6; also recorded: E6-H7”, the cleaved bond (brain homogenate) was “S1-D2, major and D2-L” and the cleaved bond (liver homogenate) was “S1-D2, major; also recorded: D2-L3”. For the same substance, the cleaved bond (faeces homogenate) was “S1-D2, major” and the cleaved bond (kidney homogenate) was “D2-L3; also recorded: S1-D2, major”.
